Experimental data reported in a melting point compilation (Tetko et al.).

SMILES	melting point [°C]
CCCc1c(C)nc(NC(=O)NS(=O)(=O)c2cccs2)nc1Cl	171 to 173
C=CCc1ccc(O)cc1	15.8
c1ccc(C2Cc3ccccc32)nc1 (configuration not stated)	35 to 44
CN(C)S(C)(=O)=O	49 to 50
O=C1CCCCC1C1=CCCCC1 (configuration not stated)	-78
C#CCOc1c(Cl)cccc1Cl	43.5
CC1OC(=O)C(C)C1CC(O)C(C)(O)C1CCC2(O)C3=CC(=O)C4CC(O)C(O)CC4(C)C3CCC12C (configuration not stated)	158 to 160
N#C/C(=N\Nc1ccc(Cl)cc1)c1nc2ccccc2s1	188
Cc1cccc(O[Si]23OCCN(CCO2)CCO3)c1	166
O=Cc1c(F)ccc(F)c1Cl	47
CC1NC(C(=O)O)CS1 (mixture of isomers)	180 to 185
Sc1nccc(-c2cccs2)n1	206 to 215
O=C(C=Cc1ccc(-c2ccc(Br)cc2)o1)c1ccco1	164 to 165
CCCC(O)C1(C)CCC(C(=O)O)C(C)(C)O1 (configuration not stated)	179
NNC(=O)c1ccc(Cl)c(Br)c1	165 to 168
CC(=O)c1ccsc1	60
CSC(S)=Nc1ccc(Cl)cc1	112 to 113
CNC(=O)C=C(C)OP(=O)(OC)OC	55
COC(=O)c1sc(SC)c(S(=O)(=O)C(C)C)c1Cl	141 to 144
O=C(O)c1ccccc1	122
BrCCCCCCCCCCCCCCBr	50.4
CCCCCCCCCCCC(=O)NC	68
Cc1nccc(-c2cccc(S(=O)(=O)Cl)c2)n1	174 to 175

SMILES	melting point [°C]
CCN(CC)C(=O)COC(=O)c1ccccc1	72.5
CC(=O)Nc1cc([N+](=O)[O-])c(C=Cc2ccccc2)cc1C=Cc1ccccc1	227
Nc1ccc(Cl)c(Cl)c1	72
Cc1ccc(C#N)c(N)c1	92 to 93
Cc1nc(/C(C#N)=N/Nc2cccc(C(F)(F)F)c2)sc1/N=N/c1ccc(F)cc1	211
Clc1cc(Cl)c(I)cc1Cl	104
O=C(NC1(C(=O)O)Cc2ccccc2C1)OCC1c2ccccc2-c2ccccc21	198 to 202
O=C1NC2CCCCC12 (configuration not stated)	48 to 50
CC(O)c1ccc(N)cc1 (configuration not stated)	70
CN(C)CCOC1=Cc2ccccc2Sc2ccc(Cl)cc21	90
O=Cc1cccc(CN2CCOCC2)c1	63 to 64
C=CCCCCCCC(=O)O	5
CCCCCCCCCCCCCCCCCCCc1ccccc1	40
CCC1=CCCC1=NNc1ccc([N+](=O)[O-])cc1[N+](=O)[O-]	220
CC(=O)OCCOC(C)=O	-31
COc1cccc(OC)c1	-52
NC(=S)NN=Cc1ccccc1	154 to 156
NNc1cnn(-c2ccccc2)c(=O)c1Cl	170
COP(=S)(OC)Oc1ccc([N+](=O)[O-])cc1Cl	52.5
CC(=O)n1cc(C=O)c2ccccc21	162
CN1CSC(=S)N(C)C1	106
CCOC(=O)c1cc2cc(C(F)(F)F)c(C(F)(F)F)cc2c(=O)o1	193
Nc1c(Cl)c(Cl)cc(Cl)c1Cl	107

SMILES	melting point [°C]
NC(Cc1c[nH]c2ccc(Br)cc12)C(=O)O (racemic)	261 to 267
CNC(C)=CC(=O)OC	62 to 68
Nc1nc(=O)n(C2CSC(CO)O2)cc1F (configuration not stated)	138
CCOC(=O)c1cc2cc(C=O)c(N)cc2[nH]c1=O	154 to 157
COC(=O)c1ccc2c(I)c[nH]c2c1	150
CNC(=NCCSCc1nc[nH]c1C)NC#N	141
O=C1c2ccccc2-c2ccc([N+](=O)[O-])cc21	222 to 223
O=[N+]([O-])c1ccc(-c2ccc([N+](=O)[O-])cc2Cl)cc1	144 to 146
CCCCCCCCCF	1
O=C(O)C1=Cc2cc(Cl)ccc2OC1	245
ON=C(c1ccccc1)c1ccc(O)cc1	78
CCCOC(=O)C1=C(C)NC(=S)NC1c1ccccc1 (configuration not stated)	169
NC(=O)c1sc(NCc2ccccc2)nc1N	196 to 198
CCC(C)CC(=O)O (racemic)	-41
O=[N+]([O-])CC(O)C(Cl)(Cl)Cl (configuration not stated)	45.5
CC(=O)c1c(-c2ccc(Cl)cc2Cl)noc1C	55 to 59
CCCCCCCCCC(O)CC (configuration not stated)	25
O=C(O)c1ccc(-c2ccco2)nc1	200
CNCC(O)c1cccc(O)c1 (configuration not stated)	170
CC(=O)c1ccccc1[N+](=O)[O-]	28.5
CCC(=O)C(=O)O	33
CC1CCC(C(C)C)C(OC(=O)c2ccc3ccccc3c2)C1 (configuration not stated)	76
c1ccc(Cc2cccc3ccccc23)cc1	59.5

SMILES	melting point [°C]
CCCCCCCCOC1OC(CO)C(O)C(O)C1O (configuration not stated)	105
O=Cc1ccc(OCc2ccccc2)c(OCc2ccccc2)c1	88 to 92
N#CC(N)=C(N)C#N	178 to 179
O=C(O)c1ccc(-n2cccc2)cc1	288 to 291
O=[N+]([O-])c1ccc(Cc2ccccn2)c([N+](=O)[O-])c1	92
NC(=S)c1ncc(C(F)(F)F)cc1N1CCCC1	176 to 180
N#CC#CC#N	20.5
Cc1cccc(C(N)=O)c1C	157
COc1ccc(C(=O)Cl)cc1OC1CCCC1	46 to 47
CCOC(=O)N1CCC2(CC1)C(=O)N(CO)CN2c1ccccc1	134 to 139
Cc1ccc(-c2csc(N)n2)cc1	137
CC1=C(C(=O)O)CCCO1	119
Cc1cc(C#N)cc(Cl)c1N	129
CSc1nc(N)nc(-c2cccnc2)n1	243 to 254
Nc1c(Br)cc(F)c(Cl)c1Br	98
CC1(C)N=C(c2ccccc2)C(C)(C)N1O	78.6 to 80.4
N#Cc1ccc(N)cc1C#N	181
CCSCCO	-100
O=Cc1ccc(OCc2ccccc2F)cc1	54 to 57
Clc1cc2c(c(Cl)c1Cl)Oc1cc(Cl)c(Cl)c(Cl)c1O2	285
NCC[C@H](O)C(=O)O	200 to 203
O=C(Nc1ccccc1)OCc1ccccc1[N+](=O)[O-]	141
CNC(=O)Oc1cc(C)cc(C)c1	99

SMILES	melting point [°C]
OCc1cc(OCc2ccccc2)cc(OCc2ccccc2)c1	78 to 82
CCOC(=O)c1c[nH]c(=S)nc1N	256 to 258
COc1ccc(C2(C)CCc3oc4ccc(C)cc4c3-c3oc(C)cc32)cc1 (configuration not stated)	170
CC1(O)CCC2C3CCC4=CC(=O)CCC4(C)C3(F)C(O)CC21C (configuration not stated)	270
CC(C)(C)OC(=O)N1CC(=O)CC1C(=O)O (configuration not stated)	155 to 156
COC(=O)Cc1nc(-c2ccccc2)sc1C	42 to 44
C=CC(CO)N1C(=O)c2ccccc2C1=O (configuration not stated)	62.2
O=C(O)C(Br)Br	49
NCCP(=O)(O)O	296
Cn1nnc2cc(CO)ccc21	94 to 96
O=C(O)c1cncc(C(=O)O)c1	324
CCCCCCCCC=O	-18
Cc1ccc2c(ccc3ccccc32)n1	76
O=C(OCCO)c1ccccc1	45
CC(=O)OCC(=O)C12OC(C)(C)OC1CC1C3CC(F)C4=CC(=O)C=CC4(C)C3(F)C(O)CC12C (configuration not stated)	309
COc1cc(C(=O)Nc2nnc(-c3ccc(Cl)cc3)o2)cc(OC)c1OC	261 to 263
COc1ccc(F)c(F)c1O	46
N[C@@H](CCCC(=O)O)C(=O)O	206
CN1Cc2c(ccc3c2OCO3)C2C(O)Cc3cc4c(cc3C21)OCO4 (configuration not stated)	136
c1ccc(-c2nc[nH]c2-c2ccccc2)cc1	232
CC(=O)CCCCC(=O)O	35
O=C(c1ccccc1)C1CNc2cc3c(cc2C1)CC(C(=O)c1ccccc1)CN3 (configuration not stated)	209
N=C(N)SCCCS(=O)(=O)O	240 to 248

SMILES	melting point [°C]
NC(=S)Nc1ccc(Oc2ccccc2)cc1	175 to 177
COC(=O)c1ccc(OC)c(OC2CCCC2)c1	59 to 61
O=C(O)COc1cccc(Cl)c1Cl	174
COc1cc(O)c2c(=O)c(O[C@@H]3O[C@H](CO)[C@H](O)[C@H](O)[C@@H]3O[C@@H]3O[C@H](C)[C@H](O)[C@H](O)[C@@H]3O)c(-c3cccc(O)c3)oc2c1	182 to 188
O=C(O)c1cc(Cl)ccc1Br	154
Cc1cc(CO)c(O)c(CO)c1	129
COc1ccc(Br)c(OC)c1C(=O)O	146 to 148
CC1(C)CCC2(C(=O)O)C(O)CC3(C)C(=CCC4C5(C)CCC(O)C(C)(C=O)C5CCC43C)C2C1 (configuration not stated)	294
c1ccc2cc3c(cc2c1)CC1OC1C3 (configuration not stated)	159 to 160
Oc1ccc(Cl)nc1	155
O=C1OC(=O)C2=C1Cc1cc3c(cc1C2)CC3	254
Oc1cc(Br)ccc1Cl	57
ClCC(Br)CBr (configuration not stated)	6
CSCCC=O	-58
C=C(C)C(C)=O	-54
CC(C)(OCc1ccc(-c2ccc(Cl)cc2)cc1)C(=O)O	154
CCCCCCC(O)CC=CCCCCCCCC(=O)O (configuration not stated)	5.5
O=C(O)C(O)(c1ccccc1Cl)c1ccccc1Cl	162
O=C(c1ccccc1)c1cc2c(cc1Br)OCCCO2	105 to 107
NNCc1ccccc1	26
CCOC(CCl)OCC	-45
Nc1oc2ccc(Cl)cc2c(=O)c1C=O	300
